Measured values as given in PubChem BioAssay (NCI).
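Briefly, cells in 96-well plates were exposed to five compound concentrations for 48 h, and endpoints were estimated by linear interpolation. The concentration for 50% growth inhibition is given as GI50. The concentration for full growth arrest is given as TGI.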

Key:
Experiment in all cases: DTP human tumour cell line panel, 48 h; in the data active means GI50 below about 0.43 µM; inactive means the rest
[1] = tested on: EKVX NSCLC
[2] = tested on: RXF 393 renal
[3] = tested on: M14 melanoma
[4] = tested on: MOLT-4 leukemia
[5] = tested on: UACC-62 melanoma
[6] = tested on: UACC-257 melanoma
[7] = tested on: UO-31 renal
[8] = tested on: KM12 colon
[9] = tested on: DU-145 prostate
[10] = tested on: MALME-3M melanoma

O=C1C(c2ccccc2)=C(c2ccccc2)[C@H](c2ccccc2)[C@]1(Cc1nnn(-c2ccc([N+](=O)[O-])cc2)c1N1CCOCC1)c1ccccc1
> 37.5 µM: TGI [1] | TGI [2] | TGI [3] | TGI [4] | TGI [5] | TGI [6]

NC(N)=N/N=C/c1c(-c2ccc(Cl)c([N+](=O)[O-])c2)nc2n1CCS2
28.2 µM: TGI [9]
29.1 µM: TGI [3]
26.3 µM: TGI [1]
25.7 µM: TGI [8]
36 µM: TGI [4]
inactive: GI50 [1] 12.7 µM | GI50 [7] 26 µM | GI50 [8] 12.4 µM | GI50 [3] 15.4 µM | GI50 [4] 3.4 µM | GI50 [9] 14.5 µM | GI50 [5] 1.64 µM | GI50 [6] 20.6 µM
51.8 µM: TGI [6]
3.64 µM: TGI [5]
89 µM: TGI [7]

COc1nc2c(c(O)c(C)c(=O)n2OC2OC(COC(C)=O)C(OC(C)=O)C(OC(C)=O)C2OC(C)=O)c(=O)n1C (stereo unspecified)
> 100 µM: TGI [1] | TGI [7] | TGI [2] | TGI [8] | TGI [3] | TGI [4] | TGI [5]

COc1ccc2[nH]c3c(=O)[nH]ncc3c2c1
> 100 µM: TGI [1] | TGI [7] | TGI [8] | TGI [3] | TGI [4] | TGI [10] | TGI [5] | TGI [6]

Cc1ccc(-n2c3c(c4c(CN5CCOCC5)c(O)ccc42)CCc2ccccc2C3=O)cc1
inactive: GI50 [1] > 100 µM | GI50 [7] > 100 µM | GI50 [2] 25.9 µM | GI50 [8] > 100 µM | GI50 [3] > 100 µM | GI50 [4] 35.1 µM | GI50 [9] > 100 µM | GI50 [5] > 100 µM | GI50 [6] > 100 µM
> 100 µM: TGI [1] | TGI [7] | TGI [2] | TGI [8] | TGI [3] | TGI [4] | TGI [9] | TGI [5] | TGI [6]

COc1ccc(CC2=NCCc3cc(OC)c(OC)cc32)cc1Br
84.4 µM: TGI [8]
36.6 µM: TGI [5]
90.6 µM: TGI [2]
> 100 µM: TGI [1] | TGI [7]
70.4 µM: TGI [10]
58.6 µM: TGI [4]
82.6 µM: TGI [6]

COc1cc2cccc(N=Cc3c(Br)ccc(OC)c3OC(C)C)c2cc1OC
> 100 µM: TGI [1] | TGI [7] | TGI [8] | TGI [3] | TGI [4] | TGI [10] | TGI [5] | TGI [6]

CC(C)(C)c1cc(CCC(=O)Nc2ccc(Cl)cc2Cl)nc(N)n1
> 100 µM: TGI [1] | TGI [7] | TGI [2] | TGI [8] | TGI [3] | TGI [4] | TGI [10] | TGI [5] | TGI [6]

Cc1ccccc1NC(=O)C(=O)CC(=O)c1ccc([N+](=O)[O-])cc1
> 100 µM: TGI [1] | TGI [7] | TGI [2] | TGI [8] | TGI [3] | TGI [10] | TGI [5] | TGI [6]

Cn1cc(CO)c2ccccc21
> 100 µM: TGI [1] | TGI [7] | TGI [2] | TGI [3] | TGI [4] | TGI [9] | TGI [5] | TGI [6]
inactive: GI50 [1] 50.7 µM | GI50 [7] 4.28 µM | GI50 [2] 49.7 µM | GI50 [8] 15.9 µM | GI50 [3] 31.6 µM | GI50 [4] 40 µM | GI50 [9] > 100 µM | GI50 [5] 54.9 µM | GI50 [6] > 100 µM
88.5 µM: TGI [8]
